Assay results taken from US9518041B2, “(+)-5-(3,4-difluorophenyl)-5-[(3-methyl-2-oxopyridin-1(2H)-yl)methyl]imidazolidine-2,4-dione and drug containing same” (KAKEN PHARMACEUTICAL CO., LTD., priority 2013, dated 2016).
Values after ≈ are worked out from the molar mass of the structure shown.

Experiments:
human MMP-9 = biological target: T1, human MMP-9 (Homo sapiens, UniProt P14780); experiment: MMP-9 inhibition test; type: biochemical; conditions: read-out: Inhibitory activity (IC50, nM) MMP-9
T1 construct: purchased Calbiochem 444231
Experimental: (§1) MMP inhibition tests can be carried out, for example, using a fluorescent synthetic substrate based on the methods described in Bickett et al. (D. Mark Bickett et al., Anal. Biochem., 1993, 212, 58-64) and Nagase et al. (H. Nagase et al., J. Biol. Chem., 1994, 269, 20952-20957). The method for each MMP inhibition test is shown below.
90 μL (11 ng) of human MMP-9 (Calbiochem #444231) was mixed with 10 μL of 10 mM APMA, and activated by reacting at 37° C. for 2 hours. 10 μL of the resultant enzyme solution was diluted to 90 μL with an assay buffer A. The mixture was added to 90 μL of a 20 μM fluorescent substrate (Dnp-Pro-Cha-Gly-Cys(Me)-His-Ala-Lys(Nma)-NH2) (SEQ ID NO: 2) prepared with an assay buffer B, and reacted at 37° C. for 4 hours. Enzyme activity was then determined by measuring with a fluorescence intensity meter (Labsystems, Fluoroskan Ascent) at an excitation wavelength of 355 nm and a measurement wavelength of 460 nm.
(§2) From the enzyme activity in the presence or the absence of the test substance, the inhibition rate was determined, and the 50% inhibitiory concentration (IC50) of the test substance was calculated.

human MMP-2 = biological target: T2, human MMP-2 (Homo sapiens, UniProt P08253); experiment: MMP-2 inhibition test; type: biochemical; conditions: read-out: Inhibitory activity (IC50, nM) MMP-2
T2 construct: purchased Calbiochem 444213
T2 sequence (P08253 110-660): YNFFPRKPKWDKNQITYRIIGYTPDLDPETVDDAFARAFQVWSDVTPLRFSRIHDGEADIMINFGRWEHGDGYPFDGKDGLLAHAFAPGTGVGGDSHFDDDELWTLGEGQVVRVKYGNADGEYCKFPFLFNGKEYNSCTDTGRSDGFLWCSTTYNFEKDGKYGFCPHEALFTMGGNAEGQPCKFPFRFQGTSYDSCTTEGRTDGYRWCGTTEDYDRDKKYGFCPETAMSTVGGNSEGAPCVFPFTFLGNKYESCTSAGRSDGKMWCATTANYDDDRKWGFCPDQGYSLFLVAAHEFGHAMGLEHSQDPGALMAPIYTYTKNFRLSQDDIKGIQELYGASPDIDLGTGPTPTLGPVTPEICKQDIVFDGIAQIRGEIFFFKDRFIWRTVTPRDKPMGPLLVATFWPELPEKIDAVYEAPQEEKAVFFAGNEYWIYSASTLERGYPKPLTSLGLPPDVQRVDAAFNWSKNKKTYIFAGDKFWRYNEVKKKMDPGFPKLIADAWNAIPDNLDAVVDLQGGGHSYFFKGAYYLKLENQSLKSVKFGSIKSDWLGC
Experimental: as §1
90 μL (5 ng) of human MMP-2 (Calbiochem #444213) was mixed with 10 μL of 10 mM APMA, and activated by reacting at 37° C. for 1 hour. 10 μL of the resultant enzyme solution was diluted to 90 μL with an assay buffer A. The mixture was added to 90 μL of a 20 μM fluorescent substrate (MOCAc((7-methoxycoumarin-4-yl)acetyl)-Pro-Leu-Gly-Leu-A2pr(Dnp)-Ala-Arg-NH2, Peptide Institute Inc., #3163-v) (SEQ ID NO: 3) prepared with an assay buffer B, and reacted at 37° C. for 5 hours. Enzyme activity was then determined by measuring with a fluorescence intensity meter (Labsystems, Fluoroskan Ascent) at an excitation wavelength of 320 nm and a measurement wavelength of 405 nm.
as §2

[1] = Solubility test in the 2nd fluid for the disintegration test of the Japanese Pharmacopoeia; type: physicochemical; conditions: pH 6.8, aqueous buffer, thermodynamic from solid; pH6.8, shaken for 2 hours
Experimental: Test substances (10.0 mg) were correctly weighed, and methanol was added to adjust to 10 mL. The solution was diluted by 10 times to prepare a solution of […].
In a centrifuge tube 5.0 mg of the test substance was weighed, added with 5.0 mL of the 2nd fluid for the disintegration test of the Japanese pharmacopoeia, supersonified for 3 minutes, and shaken for 2 hours thereafter. This solution was filitered with a membrane filter (0.2 μm), 500 μL the filtrate was measured, 500 μL of acetonitrile was added, and fully stirred to obtain the sample solution.
To 250 mL of 0.2 mol/L potassium dihydrogenphosphate aqueous solution, 118 mL of 0.2 mol/L sodium hydroxide aqueous solution and water was added to adjust to 1000 mL.
Using a high performance liquid chromatography, each of the sample solution for a calibration curve and sample solution for solubility measurement is measured twice to calculate an average area for each.
Based on the average area obtained in the above mentioned method, using an equation below to calculate a solubility. Solubility in the 2nd fluid for the disintegration test of the Japanese pharmacopoeia(μg/mL)=((P×2)/S)×100
S: Average area on the sample solution for a calibration curve
P: Average area on the sample solution for solubility measurement

human MMP-1 = biological target: T3, human MMP-1 (Homo sapiens, UniProt P03956); experiment: MMP-1 inhibition test; type: biochemical; conditions: read-out: Inhibitory activity (IC50, nM) MMP-1
T3 construct: purchased Calbiochem 444208
T3 sequence (P03956 100-469): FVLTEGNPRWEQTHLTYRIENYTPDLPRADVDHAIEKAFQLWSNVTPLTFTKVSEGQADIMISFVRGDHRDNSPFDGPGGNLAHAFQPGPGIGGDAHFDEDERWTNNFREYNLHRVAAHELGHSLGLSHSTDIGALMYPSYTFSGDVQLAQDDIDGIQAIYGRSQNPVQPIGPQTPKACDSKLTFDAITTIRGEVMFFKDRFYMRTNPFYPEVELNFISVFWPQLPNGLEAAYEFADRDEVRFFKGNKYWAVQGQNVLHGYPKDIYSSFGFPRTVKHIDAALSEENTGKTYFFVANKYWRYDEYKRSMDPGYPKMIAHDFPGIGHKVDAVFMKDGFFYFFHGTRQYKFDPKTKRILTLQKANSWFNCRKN
Experimental: as §1
180 μL (100 ng) of human MMP-1 (Calbiochem #444208) was mixed with 20 μL of 10 mM p-amino phenyl mercuric acetate (APMA), and activated by reacting at 37° C. for 1 hour. 20 μL of the resultant enzyme solution was diluted to 90 μL with an assay buffer A. The mixture was added to 90 μL of a 20 μM fluorescent substrate (Dnp-Pro-Cha(β-cyclohexylalanyl)-Gly-Cys(Me)-His-Ala-Lys(Nma)-NH2) (SEQ ID NO: 2) prepared with an assay buffer B, and reacted at 37° C. for 5 hours. Enzyme activity was then determined by measuring with a fluorescence intensity meter (Labsystems, Fluoroskan Ascent) at an excitation wavelength of 355 nm and a measurement wavelength of 460 nm.
as §2

T1 sequence (P14780 107-707 limits assumed): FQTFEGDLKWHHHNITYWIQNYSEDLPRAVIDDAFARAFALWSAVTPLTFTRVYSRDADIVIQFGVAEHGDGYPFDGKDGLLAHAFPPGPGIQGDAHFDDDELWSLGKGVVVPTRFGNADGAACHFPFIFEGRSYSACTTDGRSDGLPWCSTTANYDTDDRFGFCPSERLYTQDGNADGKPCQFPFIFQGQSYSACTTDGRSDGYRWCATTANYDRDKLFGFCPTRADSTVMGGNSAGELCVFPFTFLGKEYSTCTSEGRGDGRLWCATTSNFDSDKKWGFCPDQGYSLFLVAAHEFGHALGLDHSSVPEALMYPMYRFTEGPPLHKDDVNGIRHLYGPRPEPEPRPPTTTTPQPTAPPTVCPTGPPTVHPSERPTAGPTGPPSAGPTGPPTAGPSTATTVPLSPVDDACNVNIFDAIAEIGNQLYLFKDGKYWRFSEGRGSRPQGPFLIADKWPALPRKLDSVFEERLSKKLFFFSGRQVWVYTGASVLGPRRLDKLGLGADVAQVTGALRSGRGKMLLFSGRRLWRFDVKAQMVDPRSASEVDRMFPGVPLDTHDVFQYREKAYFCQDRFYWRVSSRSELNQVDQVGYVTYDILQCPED

Cc1cccn(CC2(c3ccc(F)c(F)c3)NC(=O)NC2=O)c1=O (single isomer, unassigned; (+)) [(+)-5-(3,4-difluorophenyl)-5-[(3-methyl-2-oxopyridin-1(2H)-yl)methyl]imidazolidine-2,4-dione]
IC50 (human MMP-9): > 10000 nM | IC50 (human MMP-2): > 10000 nM | solubility at 2 h [1]: 430 µg/mL (≈ 1290 µM) | IC50 (human MMP-1): > 10000 nM
